The results in this text go back to patent publication US20240139197A1, “INHIBITION OF KDM5A FOR PROMOTING ANTIGEN PRESENTATION, INCREASING CD8+ T CELL INFILTRATION AND BOOSTING ANTI-TUMOR IMMUNE RESPONSE” (The Wistar Institute of Anatomy and Biology, priority 2022, published 2024).

Assay [1] relates to HGS2 cells. Kind of assay: cell viability by colony formation assay, HGS2. The format is cell-based, mouse. The following applies: HGS2, 10 μM, 8 days. As for the experimental part: FIG. 6A-FIG. 6K show KDM5A inhibition promotes anti-tumor immune response in vivo. (FIG. 6A) Expression of H3K4me3, Kdm5a and a loading control b-actin in an independent second doxycycline-inducible shKdm5a ID8 clone treated with or without 2 μg/mL of doxycycline. (FIG. 6B) Same as FIG. 6A, but doxycycline-inducible shKdm5a ID8 cells were plated into 24 well plates and treated with 2 μg/mL of doxycycline the same day. Cells were incubated for 8 days. Relative cell viability was determined by colony formation assay. (FIG. 6C) Expression of H3K4me3, Kdm5a and a loading control b-actin in HGS2 cells treated 10 μM of CPI-455 or vehicle controls for 72 hours. […] Relative cell viability was determined by colony formation assay. (FIG. 6E-FIG. 6F) Bioluminescence signal was measured by IVIS system in indicated animal groups in the immunocompetent C57BL/6 mouse model once a week (FIG. 6E) and the survival of the indicated groups was determined by Kaplan-Meier survival curves (FIG. 6F) (n=5 mice per group). […] Ascites volumes produced from the indicated groups were quantified (FIG. 6H). n=5 mice per group. […] (FIG. 6J-FIG. 6K) Bioluminescence signal was measured by IVIS system in indicated animal groups in the immunocompromised NSG mouse model once a week (FIG. 6J), or examined for Kaplan-Meier survival curves for the indicated groups (FIG. 6K). […]

The test system of assay [2] is ID8 cells. Kind of assay: syngeneic ovarian cancer mouse model, CPI-455 treatment. In kind it is in vivo. The following applies: 50 mg/kg i.p., immuno-competent C57BL/6 mice bearing ID8.
Assay [3] relates to HGSOC cell lines. Briefly: dose response by colony formation assay in HGSOC/EOC cell lines. In kind it is cell-based, human. The following applies: panel of EOC cell lines, regardless of KDM5A expression status, dose response curve. From the text:
FIG. 5A-FIG. 5G show KDM5A is overexpressed in HGSOC and its expression negatively correlates with infiltration of CD8+ T cells. (FIG. 5A) Correlation between KDM5A and CD8A expression in the TCGA HGSOC dataset. (FIG. 5B) Correlation between KDM5A and CD8A expression in a published laser capture and microdissected (LCM) HGSOC dataset. (FIG. 5C) Correlation between KDM5A and PRFI expression in the TCGA HGSOC dataset. (FIG. 5D) Representative images of KDM5A IHC staining of HGSOC in a tumor microarray. (FIG. 5E) Relative expression of KDM5A in LCM of HGSOC and normal human ovarian surface epithelial cells (HOSE) or fallopian tube epithelial cells (FTE). (FIG. 5F) Expression of KDM5A and a loading control β-actin in the indicated FTE cells and HGSOC cell lines determined by immunoblot. (FIG. 5G) Dose response curves to KDM5A inhibitor CPI-455 determined by colony formation assay in the indicated HGSOC cell lines. Data represent mean±SEM; P values were calculated by using a two-tailed Student t test except in FIG. 5A and FIG. 5B by using Pearson r analysis.
Insulin/Transferrin/Selenium (Invitrogen, Cat #51300), […] Hydrocortisone (Sigma, Cat #H0135), 10 ng/ml Murine epidermal growth factor (Sigma, Cat #E4127) and 1% penicillin/streptomycin at 37° C.with 5% CO2. […]

Take CPI-455: the cell viability entry in assay [1] is reported as “did not affect cell viability”. In assay [2], the ascites production entry was “significantly reduced ascites production” and the “survival of tumor bearing mice” value is recorded as “improved the survival”. Moreover, in assay [3], the “cell viability in vitro” value is “did not affect cell viability”.
